Data from the Deep4Chem optical property database.

Assay: photoluminescence quantum yield (fraction); solvent given as SMILES

`CC1=CC(/C=C/c2ccc(C)cc2)=[N+]2C1=C(c1ccccc1)c1c(C)cc(/C=C/c3ccc(C)cc3)n1[B-]2(F)F` gave a photoluminescence quantum yield (in CC1CCCO1) of 0.75.
With `CN(C)c1ccc(/C=C2\CC/C(=C\c3ccc(N(C)C)cc3)C2=O)cc1` the photoluminescence quantum yield (in C1CCOC1) was 0.089, the photoluminescence quantum yield (in C1COCCO1) was 0.08 and the photoluminescence quantum yield (in CC#N) was 0.11. The photoluminescence quantum yield (in CC(C)=O) was 0.15, the photoluminescence quantum yield (in CC(C)O) was 0.18 and the photoluminescence quantum yield (in CCO) was 0.11. It also gave a photoluminescence quantum yield (in CCOC(C)=O) of 0.09, a photoluminescence quantum yield (in CN(C)C=O) of 0.19 and a photoluminescence quantum yield (in CO) of 0.025. It also gave a photoluminescence quantum yield (in CS(C)=O) of 0.2, a photoluminescence quantum yield (in Cc1ccccc1) of 0.08 and a photoluminescence quantum yield (in ClC(Cl)(Cl)Cl) of 0.043. The photoluminescence quantum yield (in ClC(Cl)Cl) was 0.13, the photoluminescence quantum yield (in ClCCl) was 0.16 and the photoluminescence quantum yield (in S=C=S) was 0.1.
In the case of `CN(C)c1ccc2c3c(c(=O)oc2c1)C=c1cc2c(cc1O3)=[N+](CCC(=O)O)CCC2`, the photoluminescence quantum yield (in CC#N) is reported as 0.242, the photoluminescence quantum yield (in CO) is reported as 0.166 and the photoluminescence quantum yield (in ClCCl) is reported as 0.685. The photoluminescence quantum yield (in O) was 0.041.
For `Nc1cccc[nH+]1`, the photoluminescence quantum yield (in O) was 0.64.
For `COc1ccc2c(c1)c1cc(OC)ccc1n2-c1ccc2c(c1)-c1cc(-n3c4ccc(OC)cc4c4cc(OC)ccc43)ccc1P2(=O)c1ccccc1`, the photoluminescence quantum yield (in Cc1ccccc1) was 0.79 and the photoluminescence quantum yield (in c1ccc2c(c1)c1ccccc1n2-c1ccc(-c2ccc(-n3c4ccccc4c4ccccc43)cc2)cc1) was 0.78.
`C1CCN2CCCn3c2c(c2c3=NCCN=2)C1` showed a photoluminescence quantum yield (in CCCCCC) of 0.36 and a photoluminescence quantum yield (in CS(C)=O) of 0.2.
Work on `C[Si](C)(C)c1ccc(C#N)c2ccccc12` yielded a photoluminescence quantum yield (in C1CCCCC1) of 0.66.
Work on `CC(C)[Si](C#Cc1ccc(C#C[Si](C(C)C)(C(C)C)C(C)C)c2nc3c(nc12)C1c2ccccc2C3c2ccccc21)(C(C)C)C(C)C` yielded a photoluminescence quantum yield (in CCCCCC) of 0.1.
For `CN1C(C(=O)Nc2ccccn2)=C([O-])c2sccc2S1(=O)=O`, the photoluminescence quantum yield (in CCCCO) was 0.0112, the photoluminescence quantum yield (in CCCO) was 0.0085 and the photoluminescence quantum yield (in CCO) was 0.00451. It also gave a photoluminescence quantum yield (in CO) of 0.00214.
With `CC1(C)C(/C=C/c2cc3ccc(O)cc3oc2=O)=[N+](CCCS(=O)(=O)[O-])c2ccccc21` the photoluminescence quantum yield (in CCO) was 0.049, the photoluminescence quantum yield (in CS(C)=O) was 0.023 and the photoluminescence quantum yield (in O) was 0.007.
Work on `Fc1ccc(-c2cc3ccc4cc(-c5ccc(F)cc5)cc5ccc(c2)c3c45)cc1` yielded a photoluminescence quantum yield (in C1CCCCC1) of 0.04, a photoluminescence quantum yield (in C1CCOC1) of 0.07 and a photoluminescence quantum yield (in CC#N) of 0.08. The photoluminescence quantum yield (in CCCCCC) was 0.02, the photoluminescence quantum yield (in CCO) was 0.05 and the photoluminescence quantum yield (in CN(C)C=O) was 0.09. It also gave a photoluminescence quantum yield (in CO) of 0.05, a photoluminescence quantum yield (in Cc1ccccc1) of 0.07 and a photoluminescence quantum yield (in ClC(Cl)Cl) of 0.04. The photoluminescence quantum yield (in ClCCl) was 0.05.
For `CCCCn1c2ccc(C#N)cc2c2cc(C#N)ccc21`, the photoluminescence quantum yield (in ClCCl) was 0.1.
Work on `c1ccc2cc(-n3cnc4ccccc43)ccc2c1` yielded a photoluminescence quantum yield (in C1CCCCC1) of 0.23, a photoluminescence quantum yield (in CCOC(C)=O) of 0.18 and a photoluminescence quantum yield (in CO) of 0.16.
For `COc1ccc(-c2cc3c(s2)-c2sc(-c4ccc(OC)cc4)cc2P(c2ccccc2)(c2ccccc2)=[O+][B-]3(c2c(C)cc(C)cc2C)c2c(C)cc(C)cc2C)cc1`, the photoluminescence quantum yield (in C1CCOC1) was 0.52.
Work on `Oc1ccc(-c2nc(-c3ccccc3)c(-c3ccccc3)[nH]2)cc1` yielded a photoluminescence quantum yield (in CO) of 0.18.
`COc1cc(C(=O)O)ccc1O` showed a photoluminescence quantum yield (in O) of 0.03.
Molecule `CCCCn1c(-c2ccc(-c3ccc(-c4ccc(-c5n(CCCC)c6cc(C)ccc6[n+]5CCCC)cc4)cc3)cc2)[n+](CCCC)c2ccc(C)cc21` has a photoluminescence quantum yield (in O) of 0.78.
`CCN(CC)c1ccc2c(c1)OC1=[N+](c3ccc(I)cc3)[B-](F)(F)n3c(nc4ccccc43)C1=C2` gave a photoluminescence quantum yield (in ClCCl) of 0.81.
Work on `CN1/C(=C/C=C/C2=[N+](CCCCCC(=O)O)c3ccc(S(=O)(=O)[O-])cc3C2(C)C)C(C)(C)c2cc(S(=O)(=O)[O-])ccc21` yielded a photoluminescence quantum yield (in O) of 0.04.
Molecule `CC[C@H](C)COc1ccc(C2=C3C(C)=C(c4ccc5ccc6cccc7ccc4c5c67)C(C)=[N+]3[B-](F)(F)n3c(C)c(-c4ccc5ccc6cccc7ccc4c5c67)c(C)c32)cc1` has a photoluminescence quantum yield (in ClCCl) of 0.5.
For `Brc1ccc(/C=C/c2cnc3ccccc3n2)cc1`, the photoluminescence quantum yield (in ClCCl) was 0.02.
In the case of `F[Si](c1ccccc1)(c1c2ccccc2cc2ccccc12)c1c2ccccc2cc2ccccc12`, the photoluminescence quantum yield (in C1CCOC1) is reported as 0.17.
In the case of `CCCN1c2ccccc2Sc2cc(/C=C\c3cc(=O)oc4cc(O)ccc34)ccc21`, the photoluminescence quantum yield (in ClC(Cl)Cl) is reported as 0.74.
In the case of `N#C/C(=C\c1ccc(C#N)cc1)c1nc(-c2ccc(Cl)cc2)cs1`, the photoluminescence quantum yield (in CC#N) is reported as 0.18.
Work on `COc1ccc(/C=C2\OC(=O)c3ccccc32)cc1` yielded a photoluminescence quantum yield (in CC(C)=O) of 0.01, a photoluminescence quantum yield (in CC(C)CO) of 0.07 and a photoluminescence quantum yield (in CC(C)O) of 0.1. It also gave a photoluminescence quantum yield (in CCCO) of 0.13, a photoluminescence quantum yield (in CCO) of 0.14 and a photoluminescence quantum yield (in CCOC(C)=O) of 0.008. It also gave a photoluminescence quantum yield (in CCOCC) of 0.001 and a photoluminescence quantum yield (in CO) of 0.14.
With `COc1ccc(C#Cc2c3cc4cc(C)sc4cc3c(C#Cc3ccc(OC)cc3)c3cc4cc(C)sc4cc23)cc1` the photoluminescence quantum yield (in ClCCl) was 0.92.
